Reference: publication PMC9728921, “Characterization of a KDM5 small molecule inhibitor with antiviral activity against hepatitis B virus” (PLOS ONE, 2022)

Tests used:
NSD3 = target: T1, NSD3 (Homo sapiens, UniProt Q9BZ95); assay: Histone methyltransferase enzymatic assay, NSD3; type: biochemical; settings: enzyme conc. 100 nM
T1 construct: 1021-1322; purchased RBC (read as Reaction Biology Corporation, named)
Description: (§1) Histone methyltransferase assays were performed in 96-well half-area optiplates (PerkinElmer) at room temperature. All concentrations are final unless noted otherwise. Compounds were serially diluted in DMSO and the final DMSO concentration was 1%. A 24 μL reaction mixture contained compound, enzyme, 200 nM of nucleosome or histone substrate, 400 nM ^3H-SAM (83.1 Ci/mmol), 50 mM Tris-HCl (pH 8.0), 50 mM NaCl, 5 mM MgCl2, 1 mM DTT, and 0.01% Tween-20. The plate was sealed, mixed on a Titramax plate shaker at 1200 rpm for 30 sec, and incubated at room temperature for 60 min. The reaction was quenched by addition of 24 μL mixture containing 5 mg/mL PVT-PEI beads and 300 μM unlabeled SAM in water. The plate was sealed, mixed as previously noted, incubated overnight, and read on a TopCount plate reader (PerkinElmer).
(§2) Data was analyzed using GraphPad Prism 6.0 (La Jolla, CA). […] IC50 values were calculated as an average of at least two independent experiments.

DOT1L = target: T2, DOT1L (Homo sapiens, UniProt Q8TEK3); assay: Histone methyltransferase enzymatic assay, DOT1L; type: biochemical; settings: enzyme conc. 2 nM
T2 construct: 1-416; BRIC
Description: as §1, §2

SIRT-1 = target: T3, SIRT-1 (Homo sapiens, UniProt Q96EB6); assay: SIRT-1 histone deacetylase assay (AlphaLISA); type: biochemical; settings: enzyme conc. 5 nM
T3 construct: 193-741; purchased BPS
Description: The assay plates were read on an Enspire plate reader (PerkinElmer) using a standard AlphaLISA program.
as §2

KDM5A = target: T4, KDM5A (Homo sapiens, UniProt P29375); assay: KDM5A enzymatic assay (CisBio HTRF); type: biochemical
T4 construct: purchased Reaction Biology Corp (assay run there as a contract service)
Description: KDM5A and 5B were tested using CisBio HTRF assay platform by Reaction Biology Corp (Malvern, PA). All concentrations are final unless noted otherwise. Inhibitors were pre-incubated with 2.5 nM KDM5A or 1.2 nM KDM5B in a 5 μL reaction mixture containing 50 mM HEPES (pH 7.5), 50 mM NaCl, 0.01% Tween 20, 0.01% BSA for 15 min temperature. The reaction was initiated by addition of 5 μL of 50 nM Biotin-H3K4me3 and incubated with gentle shaking for 45 min at RT. The reaction was quenched with 10 mM EDTA and 200 mM potassium fluoride. Upon addition of Eu-Antibody and Streptavidine-XL665, the mixture was incubated for 2 hours in the dark. The fluorescence resonance energy transfer was measured using an excitation wavelength of 320 nm and emission wavelength of 665 nm on an Envision plate reader (Perkin Elmer).
as §2

NSD2 = target: T5, NSD2 (Homo sapiens, UniProt O96028); assay: Histone methyltransferase enzymatic assay, NSD2; type: biochemical; settings: enzyme conc. 10 nM
T5 construct: Full Length; purchased RBC (read as Reaction Biology Corporation, named)
Description: as §1, §2

EZH2/EED/SUZ12 = target: T6, EZH2/EED/SUZ12 (Homo sapiens, UniProt O75530+Q15022+Q15910); assay: Histone methyltransferase enzymatic assay, EZH2/EED/SUZ12; type: biochemical; settings: enzyme conc. 100 nM
T6 construct: 2-746/2-441/2-739; purchased BPS
Description: as §1, §2

HDAC-1 = target: T7, HDAC-1 (Homo sapiens, UniProt Q13547); assay: HDAC-1 histone deacetylase assay (FLUOR DE LYS); type: biochemical; settings: enzyme conc. 5 nM
T7 construct: Full length; purchased BPS

KDM4C = KDM4C (Homo sapiens, UniProt Q9H3R0); assay: biochemical
Description: The following assay protocol was used for all histone demethylases tested except KDM1A, KDM5A, B, and D, which are described below. Compounds were serially diluted into a 384-well Alpha plate as a DMSO solution and mixed with 5 μL reaction buffer (buffer A) containing 50 mM HEPES (pH 7.0), 0.1% BSA, and 0.003% Tween-20. The enzyme of interest was pre-incubated with 15 μM of Fe^2+ for 10 min (except 30 min for KDM2B) in reaction buffer A. 5 μL of the enzyme mixture was added to each of the compound-containing wells and incubated for 10 min. The reaction was started by addition of a 5 μL mixture containing 300 nM peptide substrate, 75 μM L-ascorbic acid, and 30 μM α-ketoglutarate in buffer A. This final 15 μL of reaction mixture was incubated for 20 min for KDM5B and 1 hour for the other KDM enzymes. The reaction was quenched with 10 μL of diluted AlphaLISA Acceptor beads (1:400) in Epigenetics Buffer and incubated for 60 min. The Donor beads were diluted 1:400 into Epigenetics Buffer in the dark and 10 μL of this was added to each well and incubated for another 60 min in the dark. The assay plates were read on an Enspire plate reader (PerkinElmer) using a standard AlphaLISA program.
as §2

[1] = Liver to plasma AUC ratio, cynomolgus monkey; type: in vivo, cynomolgus monkeys; settings: male, liver and plasma, po, 2.5 mg/kg, read-out: GS-080 liver to plasma AUC ratio
Description: Rats and monkeys were dosed by oral gavage once with 1 mg/kg or 2.5 mg/kg, respectively. The rat study included a vehicle control group (water). Serial venous blood samples were taken at 0, 0.25, 0.5, 1, 2, 4, 6, 8, 12, and 24 hours post dose from each animal and collected into vacutainer tubes containing potassium oxalate/sodium fluoride (Thermo Fisher; BD367925) as the anti-coagulant and blood was centrifuged for plasma isolation. […] For monkey, liver samples were taken by biopsy at pre-dose, 1, 4, 24, 48, and 72 hours post dose (n = 2 per time point). Rat and monkey livers were weighed and immediately flash frozen in liquid nitrogen.
500 μL of cold HPLC grade water was added to each monkey liver biopsy sample and rat liver samples were diluted 3-fold with cold HPLC grade water. Diluted liver samples were homogenized between 1 and 3 minutes. 50 μL of plasma samples and homogenized liver samples were quenched with 200 μL of 0.05% formic acid in acetonitrile. […] An Agilent 1200 series binary pump (Santa Clara, CA; G1312A) was used for elution and separation of compounds with a Hypersil Gold C18 HPLC column (Thermo Fisher; 50 x 3.0 mm, 5 μm) over 6.75 minutes with 99–3% gradient of Mobile Phase A (1% acetonitrile in 2.5 mM ammonium formate aqueous solution pH 2.6) and 1–97% gradient Mobile Phase B (90% acetonitrile in aqueous 10 mM ammonium formate pH 6.8).

PRMT1 = target: T8, PRMT1 (Homo sapiens, UniProt Q99873); assay: Histone methyltransferase enzymatic assay, PRMT1; type: biochemical; settings: enzyme conc. 100 nM
T8 construct: 2-371
Description: as §1, §2

G9a = target: T9, G9a (Homo sapiens, UniProt Q96KQ7); assay: Histone methyltransferase enzymatic assay, G9a; type: biochemical; settings: enzyme conc. 100 nM
T9 construct: 786-1210; purchased RBC (read as Reaction Biology Corporation, named)
Description: as §1, §2

T4 sequence (P29375 whole entry): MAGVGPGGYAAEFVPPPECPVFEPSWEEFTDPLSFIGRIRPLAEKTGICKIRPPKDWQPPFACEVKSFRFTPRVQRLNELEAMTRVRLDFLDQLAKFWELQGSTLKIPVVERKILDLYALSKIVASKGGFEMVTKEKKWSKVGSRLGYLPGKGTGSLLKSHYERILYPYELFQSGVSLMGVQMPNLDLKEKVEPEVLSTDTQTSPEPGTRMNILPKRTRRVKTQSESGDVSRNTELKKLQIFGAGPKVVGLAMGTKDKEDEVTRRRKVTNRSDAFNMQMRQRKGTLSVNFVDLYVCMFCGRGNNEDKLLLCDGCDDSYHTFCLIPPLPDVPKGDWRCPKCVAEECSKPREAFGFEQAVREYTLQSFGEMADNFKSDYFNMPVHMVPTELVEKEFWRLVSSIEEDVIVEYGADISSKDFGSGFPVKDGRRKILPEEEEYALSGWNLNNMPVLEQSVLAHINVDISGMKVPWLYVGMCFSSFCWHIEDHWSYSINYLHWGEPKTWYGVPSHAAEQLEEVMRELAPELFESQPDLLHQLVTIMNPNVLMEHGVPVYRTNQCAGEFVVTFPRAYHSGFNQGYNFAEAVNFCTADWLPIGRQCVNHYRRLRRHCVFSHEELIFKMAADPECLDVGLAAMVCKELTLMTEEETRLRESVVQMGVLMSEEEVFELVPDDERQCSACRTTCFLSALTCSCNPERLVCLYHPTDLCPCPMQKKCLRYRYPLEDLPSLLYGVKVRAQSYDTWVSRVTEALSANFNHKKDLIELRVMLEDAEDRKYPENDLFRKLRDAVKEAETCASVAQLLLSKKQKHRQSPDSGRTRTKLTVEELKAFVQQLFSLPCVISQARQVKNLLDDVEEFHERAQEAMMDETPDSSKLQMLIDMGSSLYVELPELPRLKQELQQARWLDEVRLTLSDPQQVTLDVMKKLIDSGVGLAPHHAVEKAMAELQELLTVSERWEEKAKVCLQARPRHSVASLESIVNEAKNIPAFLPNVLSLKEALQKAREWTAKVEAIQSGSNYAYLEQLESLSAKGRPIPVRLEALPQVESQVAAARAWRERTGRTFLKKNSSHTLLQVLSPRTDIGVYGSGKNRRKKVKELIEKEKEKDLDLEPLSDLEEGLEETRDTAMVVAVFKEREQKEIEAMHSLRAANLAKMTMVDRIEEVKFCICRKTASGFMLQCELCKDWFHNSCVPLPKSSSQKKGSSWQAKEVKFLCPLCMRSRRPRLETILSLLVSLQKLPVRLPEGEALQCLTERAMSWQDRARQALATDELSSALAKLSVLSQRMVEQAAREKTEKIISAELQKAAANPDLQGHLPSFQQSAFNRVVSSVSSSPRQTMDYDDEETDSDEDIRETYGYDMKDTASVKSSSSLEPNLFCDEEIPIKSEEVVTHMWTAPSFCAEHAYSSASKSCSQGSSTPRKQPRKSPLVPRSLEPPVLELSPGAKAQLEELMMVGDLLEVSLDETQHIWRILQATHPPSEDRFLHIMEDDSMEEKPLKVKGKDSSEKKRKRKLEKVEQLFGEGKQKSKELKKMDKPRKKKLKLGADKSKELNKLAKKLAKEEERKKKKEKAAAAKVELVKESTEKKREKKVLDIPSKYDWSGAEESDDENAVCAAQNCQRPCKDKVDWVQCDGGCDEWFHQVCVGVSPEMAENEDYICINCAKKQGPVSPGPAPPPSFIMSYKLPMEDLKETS
Chain of KDM4C (Q9H3R0 whole entry): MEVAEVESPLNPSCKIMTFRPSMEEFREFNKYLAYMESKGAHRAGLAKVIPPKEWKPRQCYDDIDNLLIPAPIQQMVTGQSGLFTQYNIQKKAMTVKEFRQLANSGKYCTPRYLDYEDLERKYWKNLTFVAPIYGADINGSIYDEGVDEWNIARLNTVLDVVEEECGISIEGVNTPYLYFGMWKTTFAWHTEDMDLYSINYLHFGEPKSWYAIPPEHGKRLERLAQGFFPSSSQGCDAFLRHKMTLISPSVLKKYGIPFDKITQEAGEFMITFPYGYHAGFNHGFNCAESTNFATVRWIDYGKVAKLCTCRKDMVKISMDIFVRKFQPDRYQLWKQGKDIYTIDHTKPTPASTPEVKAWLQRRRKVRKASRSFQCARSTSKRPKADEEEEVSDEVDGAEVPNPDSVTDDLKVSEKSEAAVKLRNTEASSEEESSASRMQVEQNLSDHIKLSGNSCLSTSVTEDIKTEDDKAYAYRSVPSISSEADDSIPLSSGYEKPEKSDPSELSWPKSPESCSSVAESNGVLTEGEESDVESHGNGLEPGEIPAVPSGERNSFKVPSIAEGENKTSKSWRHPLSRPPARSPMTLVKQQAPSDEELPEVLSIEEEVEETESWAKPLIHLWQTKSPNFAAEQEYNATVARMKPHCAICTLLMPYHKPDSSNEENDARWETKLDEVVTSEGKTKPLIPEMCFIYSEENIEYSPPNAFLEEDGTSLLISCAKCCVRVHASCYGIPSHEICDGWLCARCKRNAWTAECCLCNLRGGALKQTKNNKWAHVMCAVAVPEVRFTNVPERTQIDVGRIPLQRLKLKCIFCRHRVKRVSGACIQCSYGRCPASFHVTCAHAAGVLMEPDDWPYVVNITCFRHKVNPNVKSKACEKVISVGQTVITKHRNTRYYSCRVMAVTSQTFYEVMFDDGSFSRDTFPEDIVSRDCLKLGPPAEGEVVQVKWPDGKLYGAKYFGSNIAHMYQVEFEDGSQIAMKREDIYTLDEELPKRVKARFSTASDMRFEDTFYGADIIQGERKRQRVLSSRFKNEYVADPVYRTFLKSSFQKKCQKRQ
T1 sequence (Q9BZ95 1021-1322): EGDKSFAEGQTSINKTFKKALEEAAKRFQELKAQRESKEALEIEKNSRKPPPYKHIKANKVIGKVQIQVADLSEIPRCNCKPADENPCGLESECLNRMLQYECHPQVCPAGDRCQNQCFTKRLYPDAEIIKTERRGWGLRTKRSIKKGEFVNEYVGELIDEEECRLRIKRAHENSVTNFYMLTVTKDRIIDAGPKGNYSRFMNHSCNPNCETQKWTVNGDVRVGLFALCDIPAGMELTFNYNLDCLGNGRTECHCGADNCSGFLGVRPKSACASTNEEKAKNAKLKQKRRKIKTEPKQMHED
T2 sequence (Q8TEK3 1-416): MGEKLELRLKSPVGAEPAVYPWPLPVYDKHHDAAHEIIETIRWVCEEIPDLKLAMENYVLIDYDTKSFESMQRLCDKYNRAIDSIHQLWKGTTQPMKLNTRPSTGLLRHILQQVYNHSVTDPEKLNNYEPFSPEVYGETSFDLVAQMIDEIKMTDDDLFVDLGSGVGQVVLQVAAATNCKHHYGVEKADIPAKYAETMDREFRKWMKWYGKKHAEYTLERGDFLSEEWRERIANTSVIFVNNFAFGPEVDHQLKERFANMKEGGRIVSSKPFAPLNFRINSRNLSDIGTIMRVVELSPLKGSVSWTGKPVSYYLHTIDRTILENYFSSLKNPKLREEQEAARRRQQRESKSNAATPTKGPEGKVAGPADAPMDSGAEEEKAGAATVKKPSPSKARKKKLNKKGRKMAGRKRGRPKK
T8 sequence (Q99873 2-371): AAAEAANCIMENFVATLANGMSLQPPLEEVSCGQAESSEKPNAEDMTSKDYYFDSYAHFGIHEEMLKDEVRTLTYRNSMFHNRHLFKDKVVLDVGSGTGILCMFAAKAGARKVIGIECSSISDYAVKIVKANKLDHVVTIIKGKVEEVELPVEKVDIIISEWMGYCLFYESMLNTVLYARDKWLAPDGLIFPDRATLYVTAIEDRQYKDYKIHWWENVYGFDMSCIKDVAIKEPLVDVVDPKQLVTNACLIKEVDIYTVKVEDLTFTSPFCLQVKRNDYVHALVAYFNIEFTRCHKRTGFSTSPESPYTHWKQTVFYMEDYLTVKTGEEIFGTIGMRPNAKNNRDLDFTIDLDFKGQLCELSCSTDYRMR
T3 sequence (Q96EB6 193-741): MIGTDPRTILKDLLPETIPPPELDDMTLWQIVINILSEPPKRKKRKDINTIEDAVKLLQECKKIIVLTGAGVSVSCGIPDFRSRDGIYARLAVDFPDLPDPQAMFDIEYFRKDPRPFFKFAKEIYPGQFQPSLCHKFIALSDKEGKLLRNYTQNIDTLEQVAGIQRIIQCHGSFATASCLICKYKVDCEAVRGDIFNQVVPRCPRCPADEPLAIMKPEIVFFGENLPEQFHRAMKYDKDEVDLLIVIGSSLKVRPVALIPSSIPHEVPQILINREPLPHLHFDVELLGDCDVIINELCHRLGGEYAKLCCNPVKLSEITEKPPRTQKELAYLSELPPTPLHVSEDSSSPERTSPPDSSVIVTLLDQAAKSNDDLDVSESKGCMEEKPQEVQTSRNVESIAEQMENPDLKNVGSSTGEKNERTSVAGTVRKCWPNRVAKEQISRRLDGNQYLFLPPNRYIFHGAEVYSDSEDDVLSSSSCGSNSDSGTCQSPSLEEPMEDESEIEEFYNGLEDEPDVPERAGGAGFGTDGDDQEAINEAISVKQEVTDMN
T9 sequence (Q96KQ7 786-1210): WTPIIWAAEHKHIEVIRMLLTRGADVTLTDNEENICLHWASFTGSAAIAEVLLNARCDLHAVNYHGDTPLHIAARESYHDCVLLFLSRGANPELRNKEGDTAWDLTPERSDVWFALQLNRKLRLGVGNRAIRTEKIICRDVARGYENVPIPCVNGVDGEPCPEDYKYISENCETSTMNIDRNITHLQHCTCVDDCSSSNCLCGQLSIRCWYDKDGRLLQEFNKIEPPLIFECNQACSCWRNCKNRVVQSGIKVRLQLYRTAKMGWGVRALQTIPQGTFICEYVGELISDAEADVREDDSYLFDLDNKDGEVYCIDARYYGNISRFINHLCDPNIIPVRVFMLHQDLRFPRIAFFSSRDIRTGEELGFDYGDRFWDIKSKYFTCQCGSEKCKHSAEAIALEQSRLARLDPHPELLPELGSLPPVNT

IC50 (NSD3): > 100 µM
IC50 (DOT1L): > 100 µM
IC50 (SIRT-1): > 100 µM
Fold Selectivity Compared to KDM5A (KDM5A; IC50 of KDM5A over KDM5A): 1 fold
IC50 (KDM5A; enzyme concentration 2.5 nM, IC50 lower than enzyme concentration, likely underestimates potency): 0.00036 µM
IC50 (NSD2): > 100 µM
IC50 (EZH2/EED/SUZ12): > 100 µM
IC50 (HDAC-1): > 100 µM
IC50 (KDM4C): 0.0048 µM
Fold Selectivity Compared to KDM5A (KDM4C; IC50 of KDM4C over KDM5A): 13 fold
Kp [1]: 176
IC50 (PRMT1): > 100 µM
IC50 (G9a): > 100 µM
Structure (SMILES): CCN(CCN(C)C)C(=O)CNCc1cc(C(=O)O)ccn1 [GS-080]
